In PubChem BioAssay (NCI) one finds TGI and GI50 data, which are given here for 23 compounds.

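Cells were grown in 96-well plates and exposed to each compound for 48 hours at five concentrations; endpoints were interpolated linearly between bracketing concentrations, or set to the highest concentration if not reached. Abbreviation: GI50, concentration required for 50% inhibition of growth. TGI is the concentration that stops growth completely.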

For one assay, the system named is K-562 leukemia. Nature of the assay: NCI tumour cell line growth inhibition, 48 h.
In the case of `O=C1NC(=O)C2C(=O)NC(=O)C1C2Cc1ccco1` (stereo unspecified), the TGI was over 100 µM.
`S=C1SCN(Cc2ccccc2)CN1Cc1ccco1`: the GI50 is 3.62 µM and the TGI was over 100 µM.
The matching figures for `O=C(c1cccs1)c1c(C(F)(F)F)n([O-])c2cc(Cl)c(Cl)cc2[n+]1=O`: 0.344 µM and 17.4 µM.
The matching figures for `COc1cc(-c2nccc3[nH]c(-c4ccc5cc[nH]c5c4)nc23)cc(OC)c1OC`: under 0.01 µM and 2.28 µM.
`COc1ccc2nc(NC(=O)C(=O)CC(=O)c3ccc([N+](=O)[O-])cc3)sc2c1` showed a TGI of over 100 µM.
On the same count and under the same terms, with `CC(=O)Nc1ccc(C2CC(c3ccc([N+](=O)[O-])cc3)=Nc3ccccc3S2=O)cc1` (stereo unspecified) the figure was 23.1 µM.
For `CN1CCN(c2c(F)cc(NC3=C(Cl)C(=O)c4ncccc4C3=O)cc2F)CC1`, the GI50 was 0.494 µM and the TGI was over 100 µM.
In turn, `O=C(CCCC(=O)Nc1ccc(Cl)cc1Cl)CC(=O)c1ccc2ccccc2c1` yielded a TGI of over 100 µM.
For `CC(=O)OC1COC(N2CCc3cc([N+](=O)[O-])ccc32)C(OC(C)=O)C1OC(C)=O` (stereo unspecified), the TGI was over 100 µM.
In turn, `CCOC(=O)C1S(=O)(=O)OCCOS1(=O)=O` returned a TGI of over 100 µM.
As to `COc1ccc(C(O)c2cc3c(N)c(C(=O)Nc4cccc5ccccc45)sc3nc2C)cc1` (stereo unspecified), the GI50 is 0.314 µM and the TGI is over 53.9 µM.
`Cc1nc2ccccc2c(=O)n1/N=C(\N=Nc1ccccc1Cl)c1ccccc1Cl` came in with a TGI of over 100 µM.
Turning to `CCCC(=O)CC(C)C(=O)C(=O)NC12CC3CC(CC(C3)C1)C2` (stereo unspecified), the TGI is over 100 µM.
Same read-out and setting: as for `CCCCCC/C=C\CCCCCCCCC(=O)c1cccc(OC)c1OC`, the figure is over 100 µM.

In a further assay the test system is ACHN renal. In words: NCI tumour cell line growth inhibition, 48 h.
For the compound `CCOC(=O)C1(C)CCC(C(C(=O)O)C(=O)O)CC1=O` (stereo unspecified), the TGI is over 100 µM.
Still for that read-out and setting: with `COC(=O)C1=C(C(=O)OC)C2(c3ccccc3)OC1(c1ccccc1)c1cc3ccccc3cc12` the figure was 3.07 µM.
As for `[O]=[V]([OH])([OH])[OH]`, the GI50 was over 100 µM and the TGI was over 100 µM.
`CC1NOC(=O)C1N=Nc1ccc(Cl)cc1Cl` (stereo unspecified) registered a TGI of 55.5 µM.
Same read-out and setting: as for `O=C1NC(=O)C2C(=O)NC(=O)C1C2Cc1ccco1` (stereo unspecified), the figure is over 100 µM.
For `S=C1SCN(Cc2ccccc2)CN1Cc1ccco1`, the GI50 was 4.97 µM and the TGI was determined as 17.3 µM.
The matching figures for `O=C(c1cccs1)c1c(C(F)(F)F)n([O-])c2cc(Cl)c(Cl)cc2[n+]1=O`: 0.423 µM and 0.853 µM.
The matching figures for `COc1cc(-c2nccc3[nH]c(-c4ccc5cc[nH]c5c4)nc23)cc(OC)c1OC`: under 0.01 µM and 3.02 µM.
Turning to `COc1ccc2nc(NC(=O)C(=O)CC(=O)c3ccc([N+](=O)[O-])cc3)sc2c1`, the TGI was over 100 µM.
Still for that read-out and setting: with `CC(=O)Nc1ccc(C2CC(c3ccc([N+](=O)[O-])cc3)=Nc3ccccc3S2=O)cc1` (stereo unspecified) the figure was 51.8 µM.
Turning to `COCCOC1=C(Cl)C(=O)c2ccccc2C1=O`, the GI50 was 1.88 µM and the TGI turned out to be 3.59 µM.
The matching figures for `CN1CCN(c2c(F)cc(NC3=C(Cl)C(=O)c4ncccc4C3=O)cc2F)CC1`: 1.61 µM and 2.96 µM.
The matching figures for `Cc1cccc(Cn2cc(CO)c3cnccc32)c1`: over 100 µM and over 100 µM.
On to `O=C(CCCC(=O)Nc1ccc(Cl)cc1Cl)CC(=O)c1ccc2ccccc2c1`, for which the TGI was over 100 µM.
On the same count and under the same terms, as for `OC(c1ccccc1Br)(c1ccccc1Br)C(F)(F)F`, the figure is 38.3 µM; as for `CC(=O)OC1COC(N2CCc3cc([N+](=O)[O-])ccc32)C(OC(C)=O)C1OC(C)=O` (stereo unspecified), over 100 µM.
Take `COc1ccc(C(O)c2cc3c(N)c(C(=O)Nc4cccc5ccccc45)sc3nc2C)cc1` (stereo unspecified): the GI50 is 0.55 µM and the TGI was over 55.6 µM.
With `Cc1nc2ccccc2c(=O)n1/N=C(\N=Nc1ccccc1Cl)c1ccccc1Cl`, the TGI was over 100 µM.
Still for that read-out and setting: as for `CCCC(=O)CC(C)C(=O)C(=O)NC12CC3CC(CC(C3)C1)C2` (stereo unspecified), the figure is over 100 µM.
On to `CCCCCC/C=C\CCCCCCCCC(=O)c1cccc(OC)c1OC`, for which the TGI is over 100 µM.

In the next assay the test system is SNB-19 CNS. In words: NCI tumour cell line growth inhibition, 48 h.
For `CCOC(=O)C1(C)CCC(C(C(=O)O)C(=O)O)CC1=O` (stereo unspecified), the TGI was over 100 µM.
On the same count and under the same terms, as for `COC(=O)C1=C(C(=O)OC)C2(c3ccccc3)OC1(c1ccccc1)c1cc3ccccc3cc12`, the figure is 15.5 µM.
In the case of `[O]=[V]([OH])([OH])[OH]`, the GI50 is over 100 µM and the TGI is over 100 µM.
Consider `CC1NOC(=O)C1N=Nc1ccc(Cl)cc1Cl` (stereo unspecified), for which the TGI is 55.8 µM.
As to `COc1ccc(Nc2cnc3cc(N)cc(N)c3n2)cc1`, the GI50 was 32.8 µM and the TGI is over 100 µM.
The matching figures for `COc1cc(/C=C/c2cc(/C=C/c3ccc(O)c(OC)c3)n(C(=O)c3ccccc3Br)n2)ccc1O`: 2.7 µM and over 100 µM.
On to `O=C1NC(=O)C2C(=O)NC(=O)C1C2Cc1ccco1` (stereo unspecified), for which the TGI was over 100 µM.
Regarding `S=C1SCN(Cc2ccccc2)CN1Cc1ccco1`, the GI50 is 35.5 µM and the TGI is over 100 µM.
The matching figures for `COc1cc(-c2nccc3[nH]c(-c4ccc5cc[nH]c5c4)nc23)cc(OC)c1OC`: under 0.01 µM and 15.8 µM.
The compound `COc1ccc2nc(NC(=O)C(=O)CC(=O)c3ccc([N+](=O)[O-])cc3)sc2c1` gave a TGI of over 100 µM.
Still for that read-out and setting: as for `CC(=O)Nc1ccc(C2CC(c3ccc([N+](=O)[O-])cc3)=Nc3ccccc3S2=O)cc1` (stereo unspecified), the figure is over 100 µM.
For `COCCOC1=C(Cl)C(=O)c2ccccc2C1=O`, the GI50 is 4.55 µM and the TGI came to 16.8 µM.
The matching figures for `CN1CCN(c2c(F)cc(NC3=C(Cl)C(=O)c4ncccc4C3=O)cc2F)CC1`: 17.1 µM and 31.1 µM.
On to `Cc1cccc(Cn2cc(CO)c3cnccc32)c1`, for which the GI50 is over 100 µM and the TGI is over 100 µM.
`O=C(CCCC(=O)Nc1ccc(Cl)cc1Cl)CC(=O)c1ccc2ccccc2c1`: the TGI is over 100 µM.
Same read-out and setting: with `CC(=O)OC1COC(N2CCc3cc([N+](=O)[O-])ccc32)C(OC(C)=O)C1OC(C)=O` (stereo unspecified) the figure was over 100 µM.
